Assay results reported in article PMC10017709, “Structural basis of selective cannabinoid CB2 receptor activation” (Nature Communications, 2023).
Where “and” joins values, the source holds several entries; their conditions need not be identical. Equal entries are not always repeated. Where two headings read alike, the source gives them in different places.

What was measured:
CB1R I267ECL2L = CB1R I267ECL2L (Homo sapiens, UniProt P21554, I267L); assay: [35S]GTPγS assay, CB1R I267L mutant; type: biochemical; conditions: CB1R I267L; 10 µM agonist
CB1R QuadrupleTM1,7 = assay: [35S]GTPγS assay, CB1R quadruple mutant; type: biochemical, human; conditions: CB1R Quadruple TM1,7; 10 µM agonist
CB2R-I110^3.29L = CB2R-I110^3.29L (Homo sapiens, UniProt P34972, I110L); assay: [3H]CP55,940 displacement assay, CB2R I110L mutant; type: binding
CB2R-E181^ECL2D = CB2R-E181^ECL2D (Homo sapiens, UniProt P34972, E181D); assay: [35S]GTPγS assay, CB2R E181D mutant; type: biochemical; conditions: E181D mutant
hCB2R [1] = target: T1, hCB2R (Homo sapiens, UniProt P34972); assay: [3H]RO6957022 competition association assay; type: binding; conditions: for percentage specific [3H]RO6957022 binding (competition association): individual replicates
T1 construct: host or cells: CHO-K1 (CHOK1_hCB2bgal, PathHunter), membranes

CB2R-Quadruple^TM1,7 [2] = target: T2, CB2R-Quadruple^TM1,7 (Homo sapiens, UniProt P34972, C40S/K279T/K33Q/V36I); assay: [3H]CP55,940 displacement assay, CB2R quadruple mutant; type: binding; conditions: CB2R Quadruple TM1,7 mutant; <5 when curve fit not finished
CB2R WT [3] = target: T3, CB2R WT (Homo sapiens, UniProt P34972); assay: [35S]GTPγS G protein activation assay, CB2R WT; type: biochemical; conditions: for Emax: CB2R WT, read-out: Emax (%); for [35S]GTPγS binding, percentage of WT / [35S]GTPγS binding, percentage of CP55,940: individual replicates
CB2R-L185^ECL2H [4] = target: T4, CB2R-L185^ECL2H (Homo sapiens, UniProt P34972, L185H); assay: [3H]CP55,940 displacement assay, CB2R L185H mutant; type: binding
CB1R D266ECL2E = target: T5, CB1R D266ECL2E (Homo sapiens, UniProt P21554, D266E); assay: [35S]GTPγS assay, CB1R D266E mutant; type: biochemical; conditions: CB1R D266E; 10 µM agonist
T5 construct: The WT CB1R and CB2R genes were subcloned into vector pcDNA3.1; HA signal peptide (N); expressed in transfected cells; host or cells: HEK293T (transient, membrane homogenates)

CB2R-Quadruple^TM1,7 [5] = target: T2, CB2R-Quadruple^TM1,7; assay: [35S]GTPγS assay, CB2R quadruple mutant; type: biochemical; conditions: for [35S]GTPγS binding, percentage of WT: QuadrupleTM1,7, individual replicates
Experimental: In short, transient HEK293T membrane homogenates (10 µg/well) were diluted in assay buffer (50 mM Tris-HCl (pH 7.4), 5 mM MgCl2, 150 mM NaCl, 1 mM EDTA, 0.05% BSA (w/v) and 1 mM DTT, freshly prepared every day) and were pretreated with 10 µg saponin and 1 µM GDP. For endocannabinoid samples, the membranes were additionally pretreated for 30 min with 50 µM PMSF before agonist addition. […] Basal receptor activity was determined in the presence of vehicle only (0.2% DMSO/acetonitrile). […] Filtration was performed, and filter-bound radioactivity was determined as described under [^3H]RO6957022 Competition Association Assays except for using ice-cold 50 mM Tris-HCl (pH 7.4), 5 mM MgCl2 buffer.

hCB1R WT = hCB1R WT (Homo sapiens, UniProt P21554); assay: [35S]GTPγS G protein activation assay, CB1R WT; type: biochemical; conditions: CB1R WT; 10 µM agonist
CB1R-L359^6.51V = CB1R-L359^6.51V (Homo sapiens, UniProt P21554, L359V); assay: [35S]GTPγS assay, CB1R L359V mutant; type: biochemical; conditions: CB1R L359V; 10 µM agonist
CB2R-L182^ECL2I = CB2R-L182^ECL2I (Homo sapiens, UniProt P34972, L182I); assay: [35S]GTPγS assay, CB2R L182I mutant; type: biochemical; conditions: L182I mutant
CB2R WT [6] = target: T3, CB2R WT; assay: [3H]CP55,940 displacement assay, CB2R WT; type: binding
hCB2R [7] = target: T1, hCB2R; assay: [3H]RO6957022 displacement assay; type: binding; conditions: for percentage specific [3H]RO6957022 binding (displacement): individual replicates
CB2R-L185^ECL2H [8] = target: T4, CB2R-L185^ECL2H; assay: [35S]GTPγS assay, CB2R L185H mutant; type: biochemical; conditions: L185H mutant
CB1R-H270^ECL2L = CB1R-H270^ECL2L (Homo sapiens, UniProt P21554, H270L); assay: [35S]GTPγS assay, CB1R H270L mutant; type: biochemical; conditions: CB1R H270L; 10 µM agonist
[9] = at 10 µM compared to WT, read-out: Emax (%)

T3 sequence (P34972 whole entry): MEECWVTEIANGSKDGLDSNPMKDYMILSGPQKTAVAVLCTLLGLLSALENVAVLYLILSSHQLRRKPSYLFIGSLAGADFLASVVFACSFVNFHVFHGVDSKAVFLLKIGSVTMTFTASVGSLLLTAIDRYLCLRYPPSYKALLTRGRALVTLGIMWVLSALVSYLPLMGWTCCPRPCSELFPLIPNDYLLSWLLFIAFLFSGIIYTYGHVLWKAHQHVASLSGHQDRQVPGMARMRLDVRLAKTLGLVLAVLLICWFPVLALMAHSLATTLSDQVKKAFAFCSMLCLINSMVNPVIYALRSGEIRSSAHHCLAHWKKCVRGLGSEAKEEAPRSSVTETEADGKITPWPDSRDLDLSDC
T1 sequence (P34972 whole entry): as above
T4 sequence (P34972 whole entry L185H): as the sequence (P34972 whole entry) above, with L185H counted along it
T2 sequence (P34972 whole entry K33Q/V36I/C40S/K279T): as the sequence (P34972 whole entry) above, with K33Q, V36I, C40S, K279T counted along it
Sequence of CB2R-E181^ECL2D (P34972 whole entry E181D): as the sequence (P34972 whole entry) above, with E181D counted along it
Sequence of CB2R-L182^ECL2I (P34972 whole entry L182I): as the sequence (P34972 whole entry) above, with L182I counted along it
Sequence of CB1R I267ECL2L (P21554 whole entry I267L): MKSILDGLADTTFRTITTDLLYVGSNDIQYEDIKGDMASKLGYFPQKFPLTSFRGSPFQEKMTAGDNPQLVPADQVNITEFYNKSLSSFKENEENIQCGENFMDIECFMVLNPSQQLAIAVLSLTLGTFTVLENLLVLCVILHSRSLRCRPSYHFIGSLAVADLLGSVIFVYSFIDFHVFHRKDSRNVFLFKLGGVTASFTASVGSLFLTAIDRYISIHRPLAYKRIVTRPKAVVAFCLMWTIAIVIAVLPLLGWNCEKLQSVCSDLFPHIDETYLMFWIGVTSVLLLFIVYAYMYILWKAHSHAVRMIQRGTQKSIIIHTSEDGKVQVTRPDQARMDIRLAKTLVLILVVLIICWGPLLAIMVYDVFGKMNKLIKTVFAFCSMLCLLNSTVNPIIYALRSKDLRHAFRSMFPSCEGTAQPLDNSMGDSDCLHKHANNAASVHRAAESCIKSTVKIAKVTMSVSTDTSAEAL
Sequence of CB1R-L359^6.51V (P21554 whole entry L359V): as the sequence (P21554 whole entry I267L) above, with L267I, L359V counted along it
Sequence of CB2R-I110^3.29L (P34972 whole entry I110L): as the sequence (P34972 whole entry) above, with I110L counted along it
Sequence of CB1R-H270^ECL2L (P21554 whole entry H270L): as the sequence (P21554 whole entry I267L) above, with L267I, H270L counted along it
T5 sequence (P21554 whole entry D266E): as the sequence (P21554 whole entry I267L) above, with D266E, L267I counted along it
Sequence of hCB1R WT (P21554 whole entry): as the sequence (P21554 whole entry I267L) above, with L267I counted along it

Compound: CCCCC/C=C\C/C=C\C/C=C\C/C=C\CCCC(=O)OC(CO)CO [2-AG, 2-arachidonoylglycerol]
- Agonist-mediated activation (CB1R I267ECL2L): 1.1 ± 0.0 fold over its basal
- Agonist-mediated activation (CB1R QuadrupleTM1,7): 1.8 ± 0.1 fold over its basal
- Ki (CB2R-I110^3.29L): 1580 nM
- EC50 (CB2R-E181^ECL2D; <5 when curve fit not finished): > 10 µM
- Emax (CB2R-E181^ECL2D; [9]): 22 ± 15%
- Kd (hCB2R [1]; KD = koff/kon, read-out: Kinetic KD): 42.7 nM
- percentage specific [3H]RO6957022 binding (competition association) (hCB2R [1]; Time 1 min): 2.75% and 8.28% and -0.30%
- percentage specific [3H]RO6957022 binding (competition association) (hCB2R [1]; Time 3 min): 14.15% and 22.81% and 17.03%
- percentage specific [3H]RO6957022 binding (competition association) (hCB2R [1]; Time 5 min): 22.93% and 20.44% and 8.60%
- percentage specific [3H]RO6957022 binding (competition association) (hCB2R [1]; Time 7 min): 18.57% and 22.56% and 19.64%
- percentage specific [3H]RO6957022 binding (competition association) (hCB2R [1]; Time 10 min): 21.07% and 23.19% and 30.43%
- percentage specific [3H]RO6957022 binding (competition association) (hCB2R [1]; Time 20 min): 26.97% and 35.00% and 33.48%
- percentage specific [3H]RO6957022 binding (competition association) (hCB2R [1]; Time 30 min): 25.36% and 45.58% and 22.89%
- percentage specific [3H]RO6957022 binding (competition association) (hCB2R [1]; Time 45 min): 33.64% and 44.13% and 30.07%
- percentage specific [3H]RO6957022 binding (competition association) (hCB2R [1]; Time 60 min): 37.87% and 46.21% and 40.22%
- percentage specific [3H]RO6957022 binding (competition association) (hCB2R [1]; Time 90 min): 43.62% and 64.89% and 33.23%
- percentage specific [3H]RO6957022 binding (competition association) (hCB2R [1]; Time 120 min): 44.54% and 60.70% and 44.33%
- ET (engagement time) (hCB2R [1]; at 1 µM agonist, ET = 1/(kon ∙ 1 × 10-6)): 18.8 ± 3.61 s
- Ki (CB2R-Quadruple^TM1,7 [2]): > 10 µM
- Emax (CB2R WT [3]; maximum effect at 10 µM compared to WT (Suppl. Table 6)): 85 ± 2%
- Emax (CB2R WT [3]; maximum effect compared to CP55,940): 93 ± 22%
- [35S]GTPγS binding, percentage of WT (CB2R WT [3]; log [ligand] (M) -5): 81.88 percentage of WT and 83.76 percentage of WT and 88.90 percentage of WT
- [35S]GTPγS binding, percentage of WT (CB2R WT [3]; log [ligand] (M) -6): 30.38 percentage of WT and 55.12 percentage of WT and 21.88 percentage of WT
- [35S]GTPγS binding, percentage of WT (CB2R WT [3]; log [ligand] (M) -7): 23.64 percentage of WT and 24.41 percentage of WT and 16.38 percentage of WT
- [35S]GTPγS binding, percentage of WT (CB2R WT [3]; log [ligand] (M) -8): 45.75 percentage of WT and 38.50 percentage of WT and 15.70 percentage of WT
- EC50 (CB2R WT [3]; [35S]GTPγS, HEK293T membranes transiently expressing CB2R WT): 1260 nM
- [35S]GTPγS binding, percentage of CP55,940 (CB2R WT [3]; log [agonist] (M) -5): 64.32% and 135.41% and 79.23%
- [35S]GTPγS binding, percentage of CP55,940 (CB2R WT [3]; log [agonist] (M) -6): 23.86% and 33.33% and 42.53%
- [35S]GTPγS binding, percentage of CP55,940 (CB2R WT [3]; log [agonist] (M) -7): 18.57% and 24.95% and 4.53%
- [35S]GTPγS binding, percentage of CP55,940 (CB2R WT [3]; log [agonist] (M) -8): 35.93% and 23.91% and 2.02%
- Ki (CB2R-L185^ECL2H [4]): 398 nM
- Agonist-mediated activation (CB1R D266ECL2E): 1.5 ± 0.2 fold over its basal
- EC50 (CB2R-Quadruple^TM1,7 [5]; Quadruple TM1,7 mutant, <5 when curve fit not finished): > 10 µM
- Emax (CB2R-Quadruple^TM1,7 [5]; Quadruple TM1,7 mutant, at 10 µM compared to WT, read-out: Emax (%)): 6 ± 4%
- [35S]GTPγS binding, percentage of WT (CB2R-Quadruple^TM1,7 [5]; log [ligand] (M) -5): 11.95 percentage of WT and 6.85 percentage of WT and -0.68 percentage of WT
- [35S]GTPγS binding, percentage of WT (CB2R-Quadruple^TM1,7 [5]; log [ligand] (M) -6): 26.61 percentage of WT and 0.18 percentage of WT
- [35S]GTPγS binding, percentage of WT (CB2R-Quadruple^TM1,7 [5]; log [ligand] (M) -7): -4.94 percentage of WT and -35.40 percentage of WT and 2.05 percentage of WT
- [35S]GTPγS binding, percentage of WT (CB2R-Quadruple^TM1,7 [5]; log [ligand] (M) -8): -0.27 percentage of WT and -23.76 percentage of WT and 1.32 percentage of WT
- Agonist-mediated activation (hCB1R WT): 1.3 ± 0.1 fold over its basal
- Agonist-mediated activation (CB1R-L359^6.51V): 1.4 ± 0.2 fold over its basal
- EC50 (CB2R-L182^ECL2I; <5 when curve fit not finished): > 10 µM
- Emax (CB2R-L182^ECL2I; [9]): 15 ± 9%
- Ki (CB2R WT [6]): 1580 nM
- Ki (hCB2R [7]; CHOK1_hCB2bgal membranes, 10 °C): 97.3 nM
- percentage specific [3H]RO6957022 binding (displacement) (hCB2R [7]; log [agonist] (M) -5): -4.06% and 1.99% and 1.24%
- percentage specific [3H]RO6957022 binding (displacement) (hCB2R [7]; log [agonist] (M) -6): 9.18% and 29.61% and 23.88%
- percentage specific [3H]RO6957022 binding (displacement) (hCB2R [7]; log [agonist] (M) -7): 74.28% and 92.58% and 77.97%
- percentage specific [3H]RO6957022 binding (displacement) (hCB2R [7]; log [agonist] (M) -8): 95.23% and 106.70% and 113.70%
- EC50 (CB2R-L185^ECL2H [8]; HEK293T membranes): 1260 nM
- Emax (CB2R-L185^ECL2H [8]; [9]): 171 ± 16%
- Agonist-mediated activation (CB1R-H270^ECL2L): 1.5 ± 0.1 fold over its basal
